Read-outs that look alike come from different tables or passages of the source.
Experiments:
[1] = tested on: Beet Armyworm (Spodoptera exigua) ("BAW"), second instar larvae; test: Bioassay on beet armyworm (BAW), 128-well diet tray assay; assay type: in vivo; conditions: for pest or weed control at 50 µg/cm2: Spodoptera exigua; for BAW rating: C = not tested, D = no activity noticed
Procedure, shortened: (§1)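 Each value represents average percent mortality from eight wells. Larvae were kept in clear-covered trays at 25° C. for five to seven days on a 14-hour light, 10-hour dark schedule before scoring.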

[2] = tested on: Cabbage Looper (Trichoplusia ni) ("CL"), second instar larvae; test: Bioassay on cabbage looper (CL), 128-well diet tray assay; assay type: in vivo; conditions: for CL rating: C = not tested, D = no activity noticed
Procedure, shortened: as §1

[3] = Trichoplusia ni, read-out: CL rating
[4] = read-out: BAW (Biological Results, rating)
[5] = Trichoplusia ni, read-out: CL (Biological Results, rating)

SMILES: CCCc1ccc(N(C)C)cc1N1C(=O)CS/C1=N\C(=O)Nc1ccc(-c2cn(-c3ccc(S(F)(F)(F)(F)F)cc3)cn2)cc1F [Compound J602, (Z)-1-(3-(5-(Dimethylamino)-2-propylphenyl)-4-oxothiazolidin-2-ylidene)-3-(2-fluoro-4-(1-(4-(pentafluoro-λ^6-sulfaneyl)phenyl)-1H-imidazol-4-yl)phenyl)urea]
- pest or weed control at 50 µg/cm2 ([1]; read-out: BAW rating): 50 to 100%
- pest or weed control at 50 µg/cm2 [2, 3]: 50 to 100%

SMILES: Cc1ccc(COCC(F)(F)F)c(N2C(=O)CS/C2=N\C(=O)Nc2ccc(-n3cnc(-c4ccc(OC(F)(F)F)cc4)n3)cc2C)c1 [Compound J442, (Z)-1-(3-(5-Methyl-2-((2,2,2-trifluoroethoxy)methyl)phenyl)-4-oxothiazolidin-2-ylidene)-3-(2-methyl-4-(3-(4-(trifluoromethoxy)phenyl)-1H-1,2,4-triazol-1-yl)phenyl)urea]
- pest or weed control at 50 µg/cm2 ([1]; read-out: BAW rating): 50 to 100%
- pest or weed control at 50 µg/cm2 [2, 3]: 50 to 100%

SMILES: CCCc1ccc(N(C)C)cc1N1C(=O)CS/C1=N\C(=O)Nc1ccc(-c2ncn(-c3ccc(OC(F)(F)F)cn3)n2)cc1C [Compound J254, (Z)-1-(3-(5-(Dimethylamino)-2-propylphenyl)-4-oxothiazolidin-2-ylidene)-3-(2-methyl-4-(1-(5-(trifluoromethoxy)pyridin-2-yl)-1H-1,2,4-triazol-3-yl)phenyl)urea]
- pest or weed control at 50 µg/cm2 [1, 4]: 50 to 100%
- pest or weed control at 50 µg/cm2 [2, 5]: 50 to 100%

SMILES: COc1ccc(-n2cnc(-c3ccc(NC(=O)/N=C4\SCC(=O)N4c4cc(C)ccc4OCCC(F)(F)F)c(F)c3)n2)cc1 [Compound J147, (Z)-1-(2-Fluoro-4-(1-(4-methoxyphenyl)-1H-1,2,4-triazol-3-yl)phenyl)-3-(3-(5-methyl-2-(3,3,3-trifluoropropoxy)phenyl)-4-oxothiazolidin-2-ylidene)urea]
- pest or weed control at 50 µg/cm2 [1, 4]: 50 to 100%
- pest or weed control at 50 µg/cm2 [2, 5]: 50 to 100%

SMILES: Cc1ccc(OCCC(F)(F)F)c(N2C(=O)CS/C2=N\C(=O)Nc2ccc(-n3cnc(-c4ccc(OC(F)(F)F)cc4)n3)cc2Cl)c1 [Compound J737, (Z)-1-(2-Chloro-4-(3-(4-(trifluoromethoxy)phenyl)-1H-1,2,4-triazol-1-yl)phenyl)-3-(3-(5-methyl-2-(3,3,3-trifluoropropoxy)phenyl)-4-oxothiazolidin-2-ylidene)urea]
- pest or weed control at 50 µg/cm2 ([1]; read-out: BAW rating): 50 to 100%
- pest or weed control at 50 µg/cm2 [2, 3]: 50 to 100%

SMILES: CCCN(CCC)c1ccc(C(C)C)c(N2C(=O)CS/C2=N\C(=O)Nc2ccc(-c3ncn(-c4ccc(OC(F)(F)F)cc4)n3)cc2CC)c1 [Compound J161, (Z)-1-(3-(5-(Dipropylamino)-2-isopropylphenyl)-4-oxothiazolidin-2-ylidene)-3-(2-ethyl-4-(1-(4-(trifluoromethoxy)phenyl)-1H-1,2,4-triazol-3-yl)phenyl)urea]
- pest or weed control at 50 µg/cm2 [1, 4]: 50 to 100%
- pest or weed control at 50 µg/cm2 [2, 5]: 0 to 50%

SMILES: Cc1ccc(COCC(F)(F)F)c(N2C(=O)CS/C2=N\C(=O)Nc2ccc(-c3ncn(-c4ccc(C(F)(F)C(F)(F)F)cc4)n3)cc2C)c1 [Compound J794, (Z)-1-(3-(5-Methyl-2-((2,2,2-trifluoroethoxy)methyl)phenyl)-4-oxothiazolidin-2-ylidene)-3-(2-methyl-4-(1-(4-(perfluoroethyl)phenyl)-1H-1,2,4-triazol-3-yl)phenyl)urea]
- BAW rating (% control or mortality class) ([1]; Table ABC, species BAW, 128-well diet tray assay, second instar larvae): A (50-100)
- mortality at 50 µg/cm2 ([2]; Trichoplusia ni, Table ABC, species CL, 128-well diet tray assay, second instar larvae, read-out: CL rating (% control or mortality class)): 50 to 100%

SMILES: COC(C)c1ccc(C)cc1N1C(=O)CS/C1=N\C(=O)Nc1ccc(-c2ncn(-c3ccc(OC(F)(F)F)cc3)n2)cc1C (centres unmarked) [Compound J60, (Z)-1-(3-(2-(1-Methoxyethyl)-5-methylphenyl)-4-oxothiazolidin-2-ylidene)-3-(2-methyl-4-(1-(4-(trifluoromethoxy)phenyl)-1H-1,2,4-triazol-3-yl)phenyl)urea]
- pest or weed control at 50 µg/cm2 [1, 4]: 50 to 100%
- pest or weed control at 50 µg/cm2 [2, 5]: 50 to 100%

SMILES: CCc1ccc(COCC(F)(F)F)c(N2C(=O)CS/C2=N\C(=O)Nc2ccc(-c3ncn(-c4ccc(OC(F)(F)F)cc4)n3)cc2F)c1 [Compound J634]
- BAW rating ([1]; Table ABC, species BAW): A (50-100)
- CL rating ([2]; Table ABC, species CL): A (50-100)

SMILES: Cc1ccc(N(C)C)c(N2C(=O)CS/C2=N\C(=O)Nc2ccc(-c3ncn(-c4ccc(OC(F)(F)F)cc4)n3)cc2)c1 [Compound J322, (Z)-1-(3-(2-(dimethylamino)-5-methylphenyl)-4-oxothiazolidin-2-ylidene)-3-(4-(1-(4-(trifluoromethoxy)phenyl)-1H-1,2,4-triazol-3-yl)phenyl)urea]
- pest or weed control at 50 µg/cm2 [1, 4]: 50 to 100%
- pest or weed control at 50 µg/cm2 [2, 5]: 50 to 100%

SMILES: COC(C)c1ccc(C)cc1N1C(=O)CS/C1=N\C(=O)Nc1ccc(-c2cn(-c3ccc(C(F)(F)F)cn3)cn2)cc1C (centres unmarked) [Compound J508, (Z)-1-(3-(2-(1-Methoxyethyl)-5-methylphenyl)-4-oxothiazolidin-2-ylidene)-3-(2-methyl-4-(1-(5-(trifluoromethyl)pyridin-2-yl)-1H-imidazol-4-yl)phenyl)urea]
- pest or weed control at 50 µg/cm2 ([1]; read-out: BAW rating): 50 to 100%
- pest or weed control at 50 µg/cm2 [2, 3]: 50 to 100%

SMILES: CCOCc1ccc(C)cc1N1C(=O)CS/C1=N\C(=O)Nc1ccc(-c2ncn(-c3ccc(S(F)(F)(F)(F)F)cc3)n2)cc1C(F)(F)F [Compound J627, (Z)-1-(3-(2-(Ethoxymethyl)-5-methylphenyl)-4-oxothiazolidin-2-ylidene)-3-(4-(1-(4-(pentafluoro-λ^6-sulfaneyl)phenyl)-1H-1,2,4-triazol-3-yl)-2-(trifluoromethyl)phenyl)urea]
- pest or weed control at 50 µg/cm2 ([1]; read-out: BAW rating): 50 to 100%
- pest or weed control at 50 µg/cm2 [2, 3]: 50 to 100%

SMILES: Cc1cc(-c2ncn(-c3ccc(OC(F)(F)F)cc3)n2)cc(C)c1NC(=O)/N=C1\SCC(=O)N1c1cc(N(C)C)ccc1C(C)C [Compound J96, (Z)-1-(2,6-Dimethyl-4-(1-(4-(trifluoromethoxy)phenyl)-1H-1,2,4-triazol-3-yl)phenyl)-3-(3-(5-(dimethylamino)-2-isopropylphenyl)-4-oxothiazolidin-2-ylidene)urea]
- pest or weed control at 50 µg/cm2 [1, 4]: 50 to 100%
- pest or weed control at 50 µg/cm2 [2, 5]: 50 to 100%

SMILES: Cc1ccc(Cc2cccc(F)c2)c(N2C(=O)CS/C2=N\C(=O)Nc2ccc(-c3ncn(-c4ccc(OC(F)(F)F)cc4)n3)cc2F)c1 [Compound J676, (Z)-1-(2-Fluoro-4-(1-(4-(trifluoromethoxy)phenyl)-1H-1,2,4-triazol-3-yl)phenyl)-3-(3-(2-(3-fluorobenzyl)-5-methylphenyl)-4-oxothiazolidin-2-ylidene)urea]
- pest or weed control at 50 µg/cm2 ([1]; read-out: BAW rating): 50 to 100%
- pest or weed control at 50 µg/cm2 [2, 3]: 50 to 100%

SMILES: Cc1ccc(COCC(Cl)Cl)c(N2C(=O)CS/C2=N\C(=O)Nc2ccc(-c3ncn(-c4ccc(S(F)(F)(F)(F)F)cc4)n3)cc2C)c1 [Compound J556]
- BAW rating ([1]; Table ABC, species BAW): A (50-100)
- CL rating ([2]; Table ABC, species CL): A (50-100)

SMILES: CC(C)c1ccc(N(C)C)cc1N1C(=O)CS/C1=N\C(=O)Nc1ccc(-n2cnc(-c3ccc(OC(F)(F)F)cc3)n2)cc1 [Compound J408, (Z)-1-(3-(5-(Dimethylamino)-2-isopropylphenyl)-4-oxothiazolidin-2-ylidene)-3-(4-(3-(4-(trifluoromethoxy)phenyl)-1H-1,2,4-triazol-1-yl)phenyl)urea]
- pest or weed control at 50 µg/cm2 ([1]; read-out: BAW rating): 50 to 100%
- pest or weed control at 50 µg/cm2 [2, 3]: 50 to 100%

SMILES: CCCc1ccc(C)cc1N1C(=O)CS/C1=N\C(=O)Nc1ccc(-c2nnc(-c3ccc(OC(F)(F)F)cc3)o2)cc1F [Compound J608, (Z)-1-(2-Fluoro-4-(5-(4-(trifluoromethoxy)phenyl)-1,3,4-oxadiazol-2-yl)phenyl)-3-(3-(5-methyl-2-propylphenyl)-4-oxothiazolidin-2-ylidene)urea]
- pest or weed control at 50 µg/cm2 ([1]; read-out: BAW rating): 50 to 100%
- pest or weed control at 50 µg/cm2 [2, 3]: 50 to 100%

SMILES: COC(C)c1ccc(C)cc1N1C(=O)CS/C1=N\C(=O)Nc1ccc(-c2ccn(-c3ccc(C(F)(F)F)cn3)n2)cc1F (centres unmarked) [Compound J309, (Z)-1-(2-Fluoro-4-(1-(5-(trifluoromethyl)pyridin-2-yl)-1H-pyrazol-3-yl)phenyl)-3-(3-(2-(1-methoxyethyl)-5-methylphenyl)-4-oxothiazolidin-2-ylidene)urea]
- pest or weed control at 50 µg/cm2 [1, 4]: 50 to 100%
- pest or weed control at 50 µg/cm2 [2, 5]: 50 to 100%

SMILES: CC(C)c1ccc(N(C)C)cc1N1C(=O)CS/C1=N\C(=O)Nc1ccc(-c2ncn(-c3ccc([S+]([O-])C(F)(F)F)cc3)n2)cc1F (centres unmarked) [Compound J379, (Z)-1-(3-(5-(Dimethylamino)-2-isopropylphenyl)-4-oxothiazolidin-2-ylidene)-3-(2-fluoro-4-(1-(4-((trifluoromethyl)sulfinyl)phenyl)-1H-1,2,4-triazol-3-yl)phenyl)urea]
- pest or weed control at 50 µg/cm2 ([1]; read-out: BAW rating): 50 to 100%
- pest or weed control at 50 µg/cm2 [2, 3]: 50 to 100%

SMILES: Cc1ccc(C(C)C)c(N2C(=O)CS/C2=N\C(=O)Nc2ccc(-c3ncn(-c4ccc(C(F)(F)F)cn4)n3)cc2F)c1 [Compound J279, (Z)-1-(2-Fluoro-4-(1-(5-(trifluoromethyl)pyridin-2-yl)-1H-1,2,4-triazol-3-yl)phenyl)-3-(3-(2-isopropyl-5-methylphenyl)-4-oxothiazolidin-2-ylidene)urea]
- pest or weed control at 50 µg/cm2 [1, 4]: 50 to 100%
- pest or weed control at 50 µg/cm2 [2, 5]: 50 to 100%

SMILES: Cc1ccc(OCC(F)(F)F)c(N2C(=O)CS/C2=N\C(=O)Nc2ccc(-c3ncn(-c4ccc(OC(F)(F)F)cc4)n3)cc2F)c1 [Compound J31, (Z)-1-(2-Fluoro-4-(1-(4-(trifluoromethoxy)phenyl)-1H-1,2,4-triazol-3-yl)phenyl)-3-(3-(5-methyl-2-(2,2,2-trifluoroethoxy)phenyl)-4-oxothiazolidin-2-ylidene)urea]
- pest or weed control at 50 µg/cm2 [1, 4]: 50 to 100%
- pest or weed control at 50 µg/cm2 [2, 5]: 50 to 100%

SMILES: Cc1ccc(COCC(F)(F)F)c(N2C(=O)CS/C2=N\C(=O)Nc2ccc(-c3ncn(-c4ccc(OC(F)(F)F)cc4)n3)cc2O)c1 [Compound J178, (Z)-1-(2-Hydroxy-4-(1-(4-(trifluoromethoxy)phenyl)-1H-1,2,4-triazol-3-yl)phenyl)-3-(3-(5-methyl-2-((2,2,2-trifluoroethoxy)methyl)phenyl)-4-oxothiazolidin-2-ylidene)urea]
- pest or weed control at 50 µg/cm2 [1, 4]: 50 to 100%
- pest or weed control at 50 µg/cm2 [2, 5]: 50 to 100%
